According to patent US12691124B2, “Methods of controlling and improving brain health” (ICAHN SCHOOL OF MEDICINE AT MOUNT SINAI, priority 2019, dated 2026):

Target: T1, BRD4 (Mus musculus, UniProt Q9ESU6)
T1 construct: Primary cortical neurons express BRD2/3/4, with BRD2 and BRD4 being the most abundant; endogenous in cells; host or cells: primary cortical neuronal cultures (mouse)
Experiment: ChIP sequencing of BRD4 chromatin occupancy in neurons
Type: cell-based
Procedure: Chromatin Immunoprecipitation with Sequencing. Primary cortical neuronal cultures were washed once with PBS then fixed for 10 minutes with a 1% formaldehyde solution in PBS with protease inhibitors (Sigma #P8340) at room temperature. Fixation was quenched adding glycine to a final concentration of 0.125M (5 minutes, room temperature). 10e6 fixed cells were resuspended in 1 ml of lysis buffer (50 mM Hepes KOH, pH7.5, 140 mM NaCl, 1 mM EDTA, 10% glycerol, 0.5% NP-40, 0.25% Triton X-100) and 10 ul of protease inhibitor cocktail (PIC). Samples were rotated for 10 minutes at 4 degrees then spun at 1350 g at 4 C for 10 minutes. Pellets were resuspended in 1 ml of lysis buffer 2 (10 mM Tris-HCl pH8.0, 200 mM NaCl, 1 mM EDTA, 0.5 mM EGTA) and 10 ul PIC.). 5e6 nuclei were sonicated in lysis buffer 3 (10 mM Tris-HCl pH8.0, 100 mM NaCl, 1 mM EDTA, 0.5 mM EGTA, 0.1% Na-Deoxicholate, 0.5% N-Lauroylsarcosine) at 4 degrees for 5 cycles of 30 seconds ON/30 seconds OFF using the Diagenode bioruptor. After, 30 ul of 10% Triton-X100 was added to each sample and then spun for 15 minutes at 20,000 g at 4 degrees. Sonication efficiency was checked by running the samples on a 2% agarose gel to confirm enrichment for fragments from 200-500 bps.
Streptavidin M-280 dynabeads were blocked with 0.5% BSA solution and coupled to 7 ug of antibody (Brd4 #Ab84778, Brd2 Bethyl #A302-583A, Pol2 Ser5 #Ab5408) for at least 8 hours at 4 degrees, rotating. Antibody-coupled beads were then added to sonicated chromatin (20e6 cells for Brd2/Brd4, 10e6 for Pol2) and incubated overnight at 4 degrees. After washing the IPs eight times with wash buffer (50 mM Hepes-KOH pH7.6, 100 mM LiCl, 1 mM EDTA, 1% NP-40, 0.7% Na-Deoxycholate) and once with TE buffer (10 mM Tris-HCl, 1 mM EDTA, 50 mM NaCl), Chromatin was eluted from magnetic beads in 200 ul elution buffer ([…] Tris-HCl pH8.0, 10 mM EDTA, 1% SDS) for 45 minutes at 65 degrees. Samples were de-crosslinked overnight at 65 degrees and proteins and RNA were removed by incubating with RNAse and proteinase k. Samples were purified using the Qiagen PCR purification kit according to the manufacturers protocol.
Samples were end-repaired using the End-IT DNA End-Repair Kit (#ER0720). After 45 minutes incubation, samples were purified using the Qiagen PCR Clean up kit as described above. Samples were adenylated using a reaction mix (200 uM dATP, 1× Klenow buffer NEB2, Klenow Fragment (3′ to 5′ exo-), NEB M0212L) and incubating at 37 degrees for 30 minutes. […] Raw sequencing reads were then aligned to the mouse mm9 genome using the default settings of Bowtie (v2.2.0)87. Only uniquely mapped reads were retained, and the alignments were subsequently filtered using the SAMtools package (v0.1.19)88 to remove duplicate reads. […]

CC(=O)N1c2ccc(-c3ccc(CN4CCCCC4)cc3)cc2[C@H](Nc2ccccc2)CC1C (stereo in doubt) [IBET858]
genes that lose BRD4 at the transcriptional start site (6 h IBET858): 2226 genes | genes with gain of BRD4 at the transcriptional start site (6 h IBET858): 295 genes | loci with reduced occupancy of BRD4 (DIV7, 6 h IBET858): 4756 loci | loci with increased occupancy of BRD4 (day 7, 6 h IBET858): 1827 loci
